Legend:
cocklebur = assay: Test B pre/postemergence cocklebur; type: in vivo, Xanthium strumarium
Outline: (§1)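 Test chemicals in a non-phytotoxic solvent mixture with surfactant were sprayed preemergence onto planted seeds and postemergence onto plants 2 to 18 cm tall (1- to 4-leaf stage). After twelve to sixteen days in a greenhouse, injury was visually rated against untreated controls from 0 (no effect) to 10 (complete control).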

pigweed = assay: Test B pre/postemergence pigweed; type: in vivo, Amaranthus retroflexus
Outline: as §1

blackgrass = assay: Test B pre/postemergence blackgrass; type: in vivo, Alopecurus myosuroides
Outline: as §1

rice = assay: Test B flood test rice; type: in vivo, Oryza sativa
Outline: (§2)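 Each value is a visual injury score relative to controls, with 10 meaning complete control and 0 no effect. Evaluation took place twelve to sixteen days after the 2-leaf-stage plants were treated and kept in the greenhouse.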

corn = assay: Test B pre/postemergence corn; type: in vivo, Zea mays
Outline: as §1

sugar beet = assay: Test B pre/postemergence sugar beet; type: in vivo, Beta vulgaris
Outline: as §1

morningglory = assay: Test B pre/postemergence morningglory; type: in vivo, Ipomoea hederacea
Outline: as §1

bedstraw = assay: Test B pre/postemergence bedstraw; type: in vivo, Galium aparine
Outline: as §1

bamyardgrass = assay: Test B flood test barnyardgrass; type: in vivo, Echinochloa crus-galli
Outline: as §2

surinam grass = assay: Test B pre/postemergence surinam grass; type: in vivo, Brachiaria decumbens
Outline: as §1

giant foxtail = assay: Test B pre/postemergence giant foxtail; type: in vivo, Setaria faberii
Outline: as §1

rape = assay: Test B pre/postemergence rape; type: in vivo, Brassica napus
Outline: as §1

purple nutsedge = assay: Test B pre/postemergence purple nutsedge; type: in vivo, Cyperus rotundus
Outline: as §1

velvetleaf = assay: Test B pre/postemergence velvetleaf; type: in vivo, Abutilon theophrasti
Outline: as §1

duck salad = assay: Test B flood test duck salad; type: in vivo, Heteranthera limosa
Outline: as §2

[1] = Preemergence, Rate 62 g/ha, scale of 0 to 10 where 0 is no effect and 10 is complete control
[2] = Preemergence, Rate 125 g/ha, 0 is no effect, 10 is complete control
[3] = Preemergence, Rate 250 g/ha, scale 0 to 10, 0 is no effect, 10 is complete control
[4] = Preemergence, Rate 500 g/ha, scale of 0 to 10 where 0 is no effect and 10 is complete control
[5] = Rate 62 g/ha, Postemergence, scale of 0 to 10 where 0 is no effect and 10 is complete control
[6] = Rate 125 g/ha, Postemergence, scale 0 to 10
[7] = Rate 500 g/ha, Postemergence, scale 0 to 10
[8] = Rate 62 g/ha, headed Pre-emergence (flood test species), scale 0 to 10 (0 no effect, 10 complete control)
[9] = Rate 125 g/ha, Pre-emergence, flood test species, scale 0 to 10 where 0 is no effect and 10 is complete control
[10] = Rate 250 g/ha, Pre-emergence, flood-test species, scale 0 to 10, 0 is no effect, 10 is complete control
[11] = Rate 500 g/ha, Pre-emergence, flood test species, scale 0 to 10 (0 no effect, 10 complete control)

Compound: CC(C)N(C(=O)n1oc(=O)n(Cc2ccco2)c1=O)c1ccc(F)cc1F [Compound 208]
- Cocklebur plant response rating (cocklebur; [1]): 0
- Cocklebur plant response rating (0 to 10 scale) (cocklebur; [2]): 0
- Cocklebur plant response rating (cocklebur; [3]): 0
- Plant response rating, Cocklebur (cocklebur; [4]): 0
- Cocklebur plant response rating (cocklebur; [5]): 0
- Cocklebur plant response rating (cocklebur; [6]): 0
- Plant response rating (0 to 10; 0 is no effect, 10 is complete control), Cocklebur (cocklebur; Rate 250 g/ha, Postemergence): 0
- Cocklebur plant response rating (cocklebur; [7]): 0
- Redroot pigweed plant response rating (pigweed; [1]): 0
- Redroot pigweed plant response rating (0 to 10 scale) (pigweed; [2]): 0
- Redroot pigweed plant response rating (pigweed; [3]): 0
- Plant response rating, Redroot pigweed (pigweed; [4]): 2
- Redroot pigweed plant response rating (pigweed; [5]): 0
- Redroot pigweed plant response rating (pigweed; [6]): 0
- Plant response rating (0 to 10; 0 is no effect, 10 is complete control), Redroot pigweed (pigweed; Rate 250 g/ha, Postemergence): 0
- Redroot pigweed plant response rating (pigweed; [7]): 0
- Blackgrass plant response rating (blackgrass; [1]): 0
- Blackgrass plant response rating (0 to 10 scale) (blackgrass; [2]): 0
- Blackgrass plant response rating (blackgrass; [3]): 0
- Plant response rating, Blackgrass (blackgrass; [4]): 3
- Blackgrass plant response rating (blackgrass; [5]): 0
- Blackgrass plant response rating (blackgrass; [6]): 0
- Plant response rating (0 to 10; 0 is no effect, 10 is complete control), Blackgrass (blackgrass; Rate 250 g/ha, Postemergence): 0
- Blackgrass plant response rating (blackgrass; [7]): 7
- Rice plant response rating (rice; [8]): 0
- Rice plant response rating (rice; [9]): 0
- Rice plant response rating (rice; [10]): 0
- Rice plant response rating (rice; [11]): 0
- Corn plant response rating (corn; [1]): 0
- Corn plant response rating (0 to 10 scale) (corn; [2]): 0
- Corn plant response rating (corn; [3]): 0
- Plant response rating, Corn (corn; [4]): 0
- Corn plant response rating (corn; [5]): 0
- Corn plant response rating (corn; [6]): 0
- Plant response rating (0 to 10; 0 is no effect, 10 is complete control), Corn (corn; Rate 250 g/ha, Postemergence): 0
- Corn plant response rating (corn; [7]): 0
- Sugarbeets plant response rating (sugar beet; [1]): 0
- Sugarbeets plant response rating (0 to 10 scale) (sugar beet; [2]): 0
- Sugarbeets plant response rating (sugar beet; [3]): 0
- Plant response rating, Sugarbeets (sugar beet; [4]): 0
- Sugarbeets plant response rating (sugar beet; [5]): 0
- Sugarbeets plant response rating (sugar beet; [6]): 0
- Plant response rating (0 to 10; 0 is no effect, 10 is complete control), Sugarbeets (sugar beet; Rate 250 g/ha, Postemergence): 0
- Sugarbeets plant response rating (sugar beet; [7]): 0
- Morningglory plant response rating (morningglory; [1]): 0
- Morningglory plant response rating (0 to 10 scale) (morningglory; [2]): 0
- Morningglory plant response rating (morningglory; [3]): 0
- Plant response rating, Morningglory (morningglory; [4]): 0
- Morningglory plant response rating (morningglory; [5]): 1
- Morningglory plant response rating (morningglory; [6]): 1
- Plant response rating (0 to 10; 0 is no effect, 10 is complete control), Morningglory (morningglory; Rate 250 g/ha, Postemergence): 1
- Morningglory plant response rating (morningglory; [7]): 3
- Bedstraw plant response rating (bedstraw; [1]): 0
- Bedstraw plant response rating (0 to 10 scale) (bedstraw; [2]): 0
- Bedstraw plant response rating (bedstraw; [3]): 0
- Plant response rating, Bedstraw (bedstraw; [4]): 0
- Bedstraw plant response rating (bedstraw; [5]): 0
- Bedstraw plant response rating (bedstraw; [6]): 0
- Plant response rating (0 to 10; 0 is no effect, 10 is complete control), Bedstraw (bedstraw; Rate 250 g/ha, Postemergence): 0
- Bedstraw plant response rating (bedstraw; [7]): 5
- Barnyardgrass plant response rating (bamyardgrass; [8]): 0
- Barnyardgrass plant response rating (bamyardgrass; [9]): 0
- Barnyardgrass plant response rating (bamyardgrass; [10]): 0
- Barnyardgrass plant response rating (bamyardgrass; [11]): 0
- B. signalgrass plant response rating (surinam grass; [1]): 0
- B. signalgrass plant response rating (0 to 10 scale) (surinam grass; [2]): 0
- B. signalgrass plant response rating (surinam grass; [3]): 0
- Plant response rating, B. signalgrass (surinam grass; [4]): 0
- B. signalgrass plant response rating (surinam grass; [5]): 0
- B. signalgrass plant response rating (surinam grass; Rate 125 g/ha, Postemergence, scale 0 (no effect) to 10 (complete control)): 0
- Plant response rating (0 to 10; 0 is no effect, 10 is complete control), B. signalgrass (surinam grass; Rate 250 g/ha, Postemergence): 0
- B. signalgrass plant response rating (surinam grass; Rate 500 g/ha, Postemergence, scale 0 to 10, 0 no effect, 10 complete control): 3
- Giant foxtail plant response rating (giant foxtail; [1]): 2
- Giant foxtail plant response rating (0 to 10 scale) (giant foxtail; [2]): 8
- Giant foxtail plant response rating (giant foxtail; [3]): 9
- Plant response rating, Giant foxtail (giant foxtail; [4]): 10
- Giant foxtail plant response rating (giant foxtail; [5]): 0
- Giant foxtail plant response rating (giant foxtail; [6]): 0
- Plant response rating (0 to 10; 0 is no effect, 10 is complete control), Giant foxtail (giant foxtail; Rate 250 g/ha, Postemergence): 0
- Giant foxtail plant response rating (giant foxtail; [7]): 1
- Rape plant response rating (rape; [1]): 0
- Rape plant response rating (0 to 10 scale) (rape; [2]): 0
- Rape plant response rating (rape; [3]): 0
- Plant response rating, Rape (rape; [4]): 0
- Rape plant response rating (rape; [5]): 0
- Rape plant response rating (rape; [6]): 0
- Plant response rating (0 to 10; 0 is no effect, 10 is complete control), Rape (rape; Rate 250 g/ha, Postemergence): 0
- Rape plant response rating (rape; [7]): 0
- Nutsedge plant response rating (purple nutsedge; [1]): 0
- Nutsedge plant response rating (0 to 10 scale) (purple nutsedge; [2]): 0
- Nutsedge plant response rating (purple nutsedge; [3]): 0
- Plant response rating, Nutsedge (purple nutsedge; [4]): 0
- Nutsedge plant response rating (purple nutsedge; [5]): 0
- Nutsedge plant response rating (purple nutsedge; [6]): 0
- Plant response rating (0 to 10; 0 is no effect, 10 is complete control), Nutsedge (purple nutsedge; Rate 250 g/ha, Postemergence): 0
- Nutsedge plant response rating (purple nutsedge; [7]): 0
- Velvetleaf plant response rating (velvetleaf; [1]): 0
- Velvetleaf plant response rating (velvetleaf; [3]): 0
- Plant response rating, Velvetleaf (velvetleaf; [4]): 3
- Velvetleaf plant response rating (velvetleaf; [5]): 1
- Velvetleaf plant response rating (velvetleaf; [6]): 1
- Plant response rating (0 to 10; 0 is no effect, 10 is complete control), Velvetleaf (velvetleaf; Rate 250 g/ha, Postemergence): 1
- Ducksalad plant response rating (duck salad; [8]): 0
- Ducksalad plant response rating (duck salad; [9]): 0
- Ducksalad plant response rating (duck salad; [10]): 0
- Ducksalad plant response rating (duck salad; [11]): 0
